Source: patent US8980933B2, “Combretastatin analogs for use in the treatment of cancer” (Universitat Bayreuth, priority 2010, dated 2015)
Values after ≈ are worked out from the molar mass of the structure shown.

Assays:
KB-3-1 cervix carcinoma = test: Cytotoxicity, KB-3-1; assay type: cell-based; conditions: Homo sapiens
Method: (§1) The compounds 9a, 9b and 9c, which are exemplary compounds of formula (III) according to the present invention, as well as the reference compound 25f were tested in a similar manner.

NHDF fibroblasts = test: Cytotoxicity, NHDF; assay type: cell-based; conditions: Homo sapiens; NHDF fibroblasts (non-malign)
Method: as §1

HUVEC cells = test: Minimal inhibitory concentration in HUVEC; assay type: cell-based
Method: as §1

[1] = tested on: PtK-2 opossum kidney cells; test: Cytotoxicity, PtK-2; assay type: cell-based; conditions: PtK2; PtK-2 opossum kidney cells (non-malign)
Method: as §1

L929 fibroblasts = test: Cytotoxicity, L929; assay type: cell-based; conditions: Mus musculus, read-out: IC50 L-929
Method: as §1

[2] = tested on: A2780 ovarian carcinoma xenografts; test: A2780 ovarian carcinoma xenograft model; assay type: in vivo, mouse
[3] = tested on: 1411HP germ cell tumor xenografts; test: Nude mouse xenograft model of resistant 1411HP; assay type: in vivo; conditions: 1411HP xenograft model
Method: In vivo antitumor activity and tolerability of compounds 5b and 6b of the invention were studied in a nude mouse xenograft model of the resistant germ cell tumor cell line 1411HP employing Athymic Nude-Fox n1 nu/nu mice (Harlan und Winkelmann, Borchen, Germany).
The tests were carried out as follows. The mice were kept under pathogen-free conditions, fed on an autoclaved standard diet and given free access to sterilized water. Each of five mice were administered a 150 μL phosphate buffered saline suspension of 10 million 1411HP cells into the left flank to generate subcutaneous xenograft tumors. After 4 weeks one group of two mice bearing 1411HP xenografts with a volume of ca. 1 cm^3 were injected i.p. with a single dose of 30 mg/kg body weight of 5b or 6b, respectively. Two mice in the second group with xenografts of a volume of ca. 2.5 cm^3 were injected i.p. with 20 mg/kg body weight of 5b on two consecutive days. Tumor volumes were calculated by caliper measurement using the formula a^2×b×0.5 with a being the short and b the long dimension. Body weight was assessed twice weekly and daily while under therapy.

[4] = tested on: H12.1 germ cell tumor, 1411HP germ cell tumor, A2780 ovarian carcinoma, HT29 colon carcinoma, DLD1 colon carcinoma, HCT8 colon carcinoma; test: SRB-cytotoxicity assay in a panel of tumor cell lines; assay type: cell-based, human; conditions: H12.1, 1411HP
Method: The cytotoxic activity of 5b was established by standard colorimetric tests (SRB- and MTT-assays) against various tumor cell lines of different entities. For the SRB cytotoxicity assay, dose-response curves of the testicular germ cell tumor cell lines exposed to drug concentrations of 0.001-10 μM were established using the sulforhodamine-B (SRB) microcuiture colorimetric assay (Papazisis et al. Optimization of the sulforhodamine B colorimetric assay. J. Immunol. Methods 1997, 208, 151-158) and performed as described in: Müller et al. Failure of activation of caspase-9 induces a higher threshold for apoptosis and cisplatin resistance in testicular cancer. Cancer Res. 2003, 63, 513-521. Briefly, cells were seeded into 96-well plates on day 0, at cell densities previously determined to ensure exponential cell growth during the period of the experiment. On day 1, cells were treated with the drugs dissolved in medium to give the appropriate concentrations for indicated times and the percentage of surviving cells relative to untreated controls was determined on day 5.
The compounds 5b, 6b, 5f and 6f as well as the reference compound 25f (Wang et al.) were furthermore subjected to an SRB-cytotoxicity assay in a panel of tumor cell lines (H12.1 germ cell tumor, 1411HP germ cell tumor, A2780 ovarian carcinoma, HT29 colon carcinoma, DLD1 colon carcinoma, HCT8 colon carcinoma).

[5] = Toxicity / tolerability in mice; assay type: in vivo
Method: Prior to testing compound 5b, healthy animals of this type were treated with an ascending range of doses of 5b in order to establish a toxicity profile. […] Suitable dosages were then administered in further tests in a nude mouse xenograft model of a pair of germ cell tumor cell lines, the chemoresistant cell line 1411HP and the chemosensitive cell line H12.1. These cell lines retain their individual in vitro chemosensitivities to cisplatin when grown as xenograft tumors and so may serve as a model of the clinical situation of resistance to chemotherapy (Mueller et al. Cancer Res. 2003; Mueller et al. Tumor Biol. 2006).
Compounds 5b, 6b and 6f were also tested in terms of feasibility of oral administration. Mice received a single dose of 40 mg/kg body weight of 5b, 6b or 6f, respectively. […] Then compounds 6b or 6f were given peroral as dual-dose application on two consecutive days in accordance to the i.p. treatment scheme used for the regression trials but with a 2-fold higher dose of 2×40 mg/kg body weight.

Structure (SMILES)	IC50 (KB-3-1 cervix carcinoma)	IC50 (NHDF fibroblasts)	minimal inhibitory concentration (MIC) HUVEC (HUVEC cells)	IC50 [1]	IC50 (L929 fibroblasts)	vascular disrupting effect [2]	vascular disrupting effect [3]	in vitro cytotoxicity compared to 25f [4]	toxicity after oral administration ([5]; peroral dual-dose 2×40 mg/kg on two consecutive days)	toxicity after oral administration ([5]; single dose 40 mg/kg oral)	toxicity after oral administration ([5]; single dose 60 mg/kg peroral)
COc1ccc(-c2ncn(C)c2-c2cc(Br)c(OC)c(OC)c2)cc1F [9a, 1-Methyl-5-(3-bromo-4,5-dimethoxyphenyl)-4-(3-fluoro-4-methoxyphenyl)imidazole]	4.4 nM	175 nM	0.109 µM (≈ 0.0459 µg/mL)	437 nM	24 nM						
CCOc1ccc(-c2c(-c3cc(Cl)c(OC)c(OC)c3)ncn2C)cc1N [compound 5f, 1-methyl-5-(3-amino-4-ethoxyphenyl)-4-(3-chloro-4,5-dimethoxyphenyl)-imidazole]						vascular disrupting activity	vascular disrupting activity	further improvement of cytotoxicity			
CCOc1ccc(-c2c(-c3cc(Br)c(OC)c(OC)c3)ncn2C)cc1N [compound 6f, 1-methyl-5-(3-amino-4-ethoxyphenyl)-4-(3-bromo-4,5-dimethoxyphenyl)-imidazole]						vascular disrupting activity	vascular disrupting activity	further improvement of cytotoxicity	no signs of toxicity were observed	No signs of toxicity were observed	tolerated symptom-free
